Measured values: ChEMBL document CHEMBL5725341, “Tricyclic compounds for use as kinase inhibitors” (2017)

Key:
[1] = target: Serine/threonine-protein kinase pim-2 (Homo sapiens, UniProt Q9P1W9); test: PIM-2 Biochemical Assay: The biochemical assay to measure PIM-2 activity relies on the ADP Hunter assay kit (DiscoveRx Corp., Cat. #90-0077), that determines the amount of ADP as direct product of the kinase enzyme activity.
[2] = target: Serine/threonine-protein kinase pim-1 (Homo sapiens, UniProt P11309); test: PIM-1 Biochemical Assay: The biochemical assay to measure PIM-1 activity relies on the ADP Hunter assay kit (DiscoveRx Corp., Cat. #90-0077), that determines the amount of ADP as direct product of the kinase enzyme activity.
Serine/threonine-protein kinase pim-1, sequence (P11309 whole entry): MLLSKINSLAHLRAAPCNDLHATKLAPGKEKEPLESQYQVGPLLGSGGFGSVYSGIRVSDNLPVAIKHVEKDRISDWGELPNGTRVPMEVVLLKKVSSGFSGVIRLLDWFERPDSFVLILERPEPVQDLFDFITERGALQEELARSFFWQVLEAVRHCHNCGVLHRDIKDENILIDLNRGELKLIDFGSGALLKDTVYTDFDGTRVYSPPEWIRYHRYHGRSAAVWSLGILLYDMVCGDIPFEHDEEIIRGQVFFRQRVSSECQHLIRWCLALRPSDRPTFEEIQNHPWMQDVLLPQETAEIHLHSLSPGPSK

[3] = target: Serine/threonine-protein kinase pim-3 (Homo sapiens, UniProt Q86V86); test: PIM-3 Biochemical Assay: The biochemical assay to measure PIM-3 activity relies on the ADP Hunter assay kit (DiscoveRx Corp., Cat. #90-0077), that determines the amount of ADP as direct product of the kinase enzyme activity.

Serine/threonine-protein kinase pim-2, sequence (Q9P1W9 whole entry): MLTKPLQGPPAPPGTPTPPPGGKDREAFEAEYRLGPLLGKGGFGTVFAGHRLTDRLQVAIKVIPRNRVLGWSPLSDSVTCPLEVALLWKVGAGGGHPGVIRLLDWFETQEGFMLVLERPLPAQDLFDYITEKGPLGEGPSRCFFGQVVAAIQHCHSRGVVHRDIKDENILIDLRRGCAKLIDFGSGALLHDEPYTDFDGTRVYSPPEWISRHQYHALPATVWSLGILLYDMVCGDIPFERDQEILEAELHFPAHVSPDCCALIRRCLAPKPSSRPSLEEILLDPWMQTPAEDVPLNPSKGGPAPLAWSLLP

| IC50 [1] [nM] | IC50 [2] [nM] | IC50 [3] [nM] | Compound |
| --- | --- | --- | --- |
| > 1000 | > 1000 | – | CN1CCOc2c(NCCN3CCOCC3)nn3c(-c4cccc(OC(F)(F)F)c4)nnc3c21 |
| > 1000 | > 1000 | – | CN1CCN(CCNc2nn3c(-c4cccc(OC(F)(F)F)c4)nnc3c3c2OCCN3C)CC1 |
| – | < 100 | – | CN1CCOc2c1c(NCCN1CCOCC1)nn1c(-c3cccc(OC(F)(F)F)c3)nnc21 |
| – | < 100 | – | CN1CCOc2c1c(NCCc1cccnc1)nn1c(-c3cccc(OC(F)(F)F)c3)nnc21 |
| > 1000 | < 100 | – | CN1CCOc2c1c(NCC13CCN(CC1)C3)nn1c(-c3cccc(OC(F)(F)F)c3)nnc21 |
| > 1000 | > 1000 | – | CN1CCOc2c(N3CCC(N(C)C)CC3)nn3c(-c4cccc(OC(F)(F)F)c4)nnc3c21 |
| > 1000 | – | – | CN1CCOc2c(NCCN3CCNCC3)nn3c(-c4cccc(OC(F)(F)F)c4)nnc3c21 |
| – | < 100 | < 100 | CN1CCOc2c1c(NCC1CC3(CCNCC3)C1)nn1c(-c3cccc(OC(F)(F)F)c3)nnc21 |
